From ChEMBL document CHEMBL1201862, “PubChem BioAssay data set” (2004)
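Exposure lasted 48 hours, with cells grown in 96-well plates and compounds tested at five concentrations. GI50 marks 50% less growth.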 Activity calls are given as the source filed them. Rule as the data show it: active = GI50 up to about 1.1 µM and inactive = higher.

Legend:
Assay in all cases: NCI tumour cell line growth inhibition, 48 h
HOP-62 = tested on: HOP-62
ACHN = tested on: ACHN
DLD-1 = tested on: DLD-1
KM12 = tested on: KM12
A498 = tested on: A498
MOLT-4 = tested on: MOLT-4
SN12C = tested on: SN12C
NCI/ADR-RES = tested on: NCI/ADR-RES
SF-539 = tested on: SF-539
SF-268 = tested on: SF-268
NCI-H226 = tested on: NCI-H226
Hs-578T = tested on: Hs-578T
SR = tested on: SR
SK-OV-3 = tested on: SK-OV-3
HT-29 = tested on: HT-29
HL-60 = tested on: HL-60
NCI-H23 = tested on: NCI-H23
OVCAR-3 = tested on: OVCAR-3
HOP-92 = tested on: HOP-92
RPMI-8226 = tested on: RPMI-8226

Compound | GI50 (HOP-62) | GI50 (ACHN) | GI50 (DLD-1) | GI50 (KM12) | GI50 (A498) | GI50 (MOLT-4) | GI50 (SN12C) | GI50 (NCI/ADR-RES) | GI50 (SF-539) | GI50 (SF-268) | GI50 (NCI-H226) | GI50 (Hs-578T) | GI50 (SR) | GI50 (SK-OV-3) | GI50 (HT-29) | GI50 (HL-60) | GI50 (NCI-H23) | GI50 (OVCAR-3) | GI50 (HOP-92) | GI50 (RPMI-8226)
COc1ccc(S(=O)(=O)N/N=C/C(=O)O)cc1 | 678 µM (inactive) | 354 µM (inactive) | > 906 µM (inactive) | 557 µM (inactive) | 495 µM (inactive) | 193 µM (inactive) | 475 µM (inactive) | 490 µM (inactive) | 519 µM (inactive) | 384 µM (inactive) | 624 µM (inactive) | 404 µM (inactive) | 202 µM (inactive) | 971 µM (inactive) | 336 µM (inactive) | 185 µM (inactive) | 369 µM (inactive) | 495 µM (inactive) | 364 µM (inactive) | 269 µM (inactive)
COc1cc(C2c3cc4c(cc3[C@@H](Nc3ccc(C#N)cc3)C3COC(=O)[C@H]23)OCO4)cc(OC)c1O (stereo partly drawn) | 0.592 µM (active) | 0.184 µM (active) | 1.27 µM (inactive) | 5.33 µM (inactive) | 2.01 µM (inactive) | 0.274 µM (active) | 1.05 µM (active) | 3.98 µM (inactive) | 1.14 µM (inactive) | 2.43 µM (inactive) | 0.665 µM (active) | 5.09 µM (inactive) | 0.261 µM (active) | 1.63 µM (inactive) | 3.05 µM (inactive) | 0.143 µM (active) | 0.622 µM (active) | 14.4 µM (inactive) | 1.02 µM (active) | 0.155 µM (active)
O=P1(O)c2ccccc2Nc2cc(C(F)(F)F)ccc21 | > 100 µM (inactive) | > 100 µM (inactive) | > 100 µM (inactive) | > 100 µM (inactive) | > 100 µM (inactive) | > 100 µM (inactive) | > 100 µM (inactive) | > 100 µM (inactive) | > 100 µM (inactive) | > 100 µM (inactive) | > 100 µM (inactive) | > 100 µM (inactive) | > 100 µM (inactive) | > 100 µM (inactive) | > 100 µM (inactive) | > 100 µM (inactive) | > 100 µM (inactive) | > 100 µM (inactive) | > 100 µM (inactive) | > 100 µM (inactive)
Ic1ncnc2c1ncn2C1CCCO1 (stereo not drawn) | > 100 µM (inactive) | > 100 µM (inactive) | > 100 µM (inactive) | > 100 µM (inactive) | > 100 µM (inactive) | > 100 µM (inactive) | > 100 µM (inactive) | – | > 100 µM (inactive) | > 100 µM (inactive) | > 100 µM (inactive) | – | > 100 µM (inactive) | > 100 µM (inactive) | > 100 µM (inactive) | > 100 µM (inactive) | > 100 µM (inactive) | > 100 µM (inactive) | > 100 µM (inactive) | > 100 µM (inactive)
C=C1C(=O)OC2C1CCC(C)C1C=CC(=O)C12C (stereo not drawn) | 15.5 µM (inactive) | 1.73 µM (inactive) | 1.89 µM (inactive) | 2.16 µM (inactive) | 12.1 µM (inactive) | 2.46 µM (inactive) | 3.33 µM (inactive) | 1.41 µM (inactive) | 2.74 µM (inactive) | 8.61 µM (inactive) | 3.75 µM (inactive) | 2.56 µM (inactive) | 1.51 µM (inactive) | 28 µM (inactive) | 2.02 µM (inactive) | 1.41 µM (inactive) | 3.25 µM (inactive) | 1.22 µM (inactive) | 4.1 µM (inactive) | 1.81 µM (inactive)
